Assay results from the supplement of paper PMC10307832.

Columns and labels:
Experiment in all cases: relative viability (nuclei count vs DMSO), 5 days (fraction); higher = more cells survive
[1] = compound: CC1=C(C(=O)N2C=CSC2=N1)CCN3CCC(=C(C4=CC=CC=C4)C5=CC=C(C=C5)F)CC3 + COc1cc2c(Oc3ccc(NC(=O)C4(C(=O)Nc5ccc(F)cc5)CC4)cc3F)ccnc2cc1OCCCN1CCOCC1 [Foretinib] (partner 0.25 µM)
Summary of the method: (§1)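 For relative viability, nuclei counts in treated wells were divided by those in vehicle wells. Lung cancer cell lines had been pin-tool dosed in 1536-well plates the day after seeding and cultured for 5 days, then fixed and stained in one step (final 0.05% Triton X-100, 1% formaldehyde, 1 ug/ml Hoechst) and imaged at 4×. Doses were one drug alone or a fixed anchor-drug dose plus five library-drug doses (not always all listed) in √10 steps, and values are duplicate-plate medians.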

[2] = compound: CC1=C(C(=O)N2C=CSC2=N1)CCN3CCC(=C(C4=CC=CC=C4)C5=CC=C(C=C5)F)CC3 + CC1(C)CCC(c2ccc(Cl)cc2)=C(CN2CCN(c3ccc(C(=O)NS(=O)(=O)c4ccc(N[C@H](CCN5CCOCC5)CSc5ccccc5)c(S(=O)(=O)C(F)(F)F)c4)cc3)CC2)C1 [Navitoclax] (partner 0.5 µM)
Summary of the method: as §1

[3] = compound: CC1=C(C(=O)N2C=CSC2=N1)CCN3CCC(=C(C4=CC=CC=C4)C5=CC=C(C=C5)F)CC3 + C[C@]1(O)C[C@@H](c2nc(-c3ccc4ccc(-c5ccccc5)nc4c3)c3c(N)nccn32)C1 [Linsitinib] (partner 1 µM)
Summary of the method: as §1

[4] = compound: CC1=C(C(=O)N2C=CSC2=N1)CCN3CCC(=C(C4=CC=CC=C4)C5=CC=C(C=C5)F)CC3 + CCNC(=O)c1noc(-c2cc(C(C)C)c(O)cc2O)c1-c1ccc(CN2CCOCC2)cc1 [Luminespib] (partner 0.01 µM)
Summary of the method: as §1

| Cell Line | relative viability ([1]; first compound 0.08 µM) | relative viability ([1]; first compound 0.253 µM) | relative viability ([1]; first compound 0.8 µM) | relative viability ([1]; first compound 2.53 µM) | relative viability ([1]; first compound 8 µM) | relative viability ([2]; first compound 0.253 µM) | relative viability ([2]; first compound 0.8 µM) | relative viability ([2]; first compound 2.53 µM) | relative viability ([2]; first compound 8 µM) | relative viability ([3]; first compound 0.253 µM) | relative viability ([3]; first compound 0.8 µM) | relative viability ([3]; first compound 2.53 µM) | relative viability ([3]; first compound 8 µM) | relative viability ([2]; first compound 0.08 µM) | relative viability ([3]; first compound 0.08 µM) | relative viability ([4]; first compound 0.08 µM) | relative viability ([4]; first compound 0.253 µM) | relative viability ([4]; first compound 0.8 µM) | relative viability ([4]; first compound 2.53 µM) | relative viability ([4]; first compound 8 µM) |
| --- | --- | --- | --- | --- | --- | --- | --- | --- | --- | --- | --- | --- | --- | --- | --- | --- | --- | --- | --- | --- |
| HCC-366 | 0.935 | 1 | 1.01 | 1 | 0.662 | 1.09 | 1.04 | 1.13 | 0.343 | 0.645 | 0.594 | 0.946 | 0.265 | – | – | – | – | – | – | – |
| HCC-827 | 1.11 | 1.08 | 1.05 | 1.13 | 1.01 | 1.1 | 1.01 | 1.07 | 0.946 | 0.969 | 0.927 | 0.996 | 0.926 | 1.06 | 0.961 | 0.742 | 0.606 | 0.552 | 0.781 | 0.342 |
| HOP-62 | 1.17 | 0.995 | 1.14 | 1.06 | 0.705 | 0.989 | 1.23 | 0.796 | 0.466 | 0.948 | 1 | 1.06 | 0.49 | 0.516 | 1.24 | 0.926 | 0.909 | 0.923 | 0.92 | 0.461 |
| IA-LM | 1.1 | 1.06 | 1.24 | 1.22 | 0.691 | 0.7 | 0.823 | 0.884 | 0.523 | 0.518 | 0.822 | 0.427 | 0.411 | 0.841 | 0.538 | – | – | – | – | – |
| LC-2-ad | 0.971 | 1.09 | 0.892 | 1.12 | 0.761 | 0.393 | 0.489 | 0.5 | 0.335 | 0.927 | 0.885 | 0.893 | 0.663 | 0.384 | 0.828 | 1.27 | 1.36 | 1.12 | 1.19 | 0.918 |
| LCLC-97TM1 | 1.01 | 1.01 | 1.02 | 0.92 | 0.958 | 0.306 | 0.347 | 0.537 | 0.249 | 0.161 | 0.19 | 0.197 | 0.164 | 0.263 | 0.185 | 0.709 | 0.831 | 0.789 | 0.938 | 0.514 |
| LCLC-103H | 0.864 | 0.567 | 0.732 | 0.761 | 0.496 | – | – | – | – | 1.04 | 0.973 | 0.924 | 0.858 | – | 1.03 | 0.791 | 0.947 | 0.864 | 0.93 | 0.594 |
| LK-2 | 1.35 | 1.07 | 1.18 | 1.33 | 0.794 | 0.962 | 1.11 | 1.05 | 0.703 | 0.531 | 0.846 | 0.502 | 0.529 | 0.741 | 0.548 | 0.154 | 0.21 | 0.186 | 0.191 | 0.162 |
| LOU-NH91 | 0.91 | 0.926 | 1.03 | 0.942 | 0.906 | 0.663 | 0.758 | 0.698 | 0.604 | 0.932 | 1.01 | 1.02 | 0.821 | 0.625 | 0.923 | 0.377 | 0.34 | 0.335 | 0.366 | 0.361 |
